Six molecules from PubChem BioAssay (NCI) can be followed below.

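Compound exposure: 48 hours, 5 concentrations, 96-well plates. Here, GI50 denotes the concentration required for 50% inhibition of growth. TGI marks complete inhibition of growth.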

Test systems include TK-10 renal; OVCAR-8 ovarian; HL-60(TB) leukemia; SR leukemia; MDA-MB-435; HCT-15 colon; IGROV1 ovarian; SF-295 CNS; DU-145 prostate; 786-0 renal.
What all share (assay): growth of human tumour cells (NCI), 48 h

As for `COc1ccc(C(=O)/C=C/c2ccc(C)cc2)cc1OC`, the GI50 was 16.4 µM in the experiment with TK-10 renal; 11.8 µM in the experiment with OVCAR-8 ovarian; 23.2 µM with HL-60(TB) leukemia; 2.4 µM in the experiment with SR leukemia; 15.5 µM in the experiment on MDA-MB-435; 8.52 µM in the experiment with HCT-15 colon. For the same molecule, the GI50 with IGROV1 ovarian is 12.3 µM; in the experiment on SF-295 CNS, 12.1 µM; in the experiment on DU-145 prostate, 3.2 µM; with 786-0 renal, 15.4 µM. For the same molecule, the TGI in the experiment on TK-10 renal was 37.7 µM; with OVCAR-8 ovarian it was 27.6 µM; in the experiment on HL-60(TB) leukemia, 62.4 µM; with SR leukemia it was 6.83 µM; in the experiment with MDA-MB-435, 32 µM; in the experiment on HCT-15 colon it was 22.1 µM. Moreover, the TGI in the experiment on IGROV1 ovarian was determined as 58.6 µM; in the experiment with SF-295 CNS, 28.4 µM; in the experiment on DU-145 prostate, 14.4 µM; in the experiment on 786-0 renal, 28.7 µM.

On to `OCc1ccc(-c2ccc(-c3ccc(CO)o3)[se]2)o1`, for which the GI50 was more than 100 µM with TK-10 renal; 55.8 µM with OVCAR-8 ovarian; 39.7 µM with HL-60(TB) leukemia; more than 69.2 µM in the experiment with SR leukemia; 42.5 µM in the experiment on MDA-MB-435; more than 100 µM in the experiment with HCT-15 colon. For the same molecule, the GI50 in the experiment on IGROV1 ovarian was 9.28 µM; in the experiment with SF-295 CNS it was more than 40.8 µM; in the experiment with DU-145 prostate it was more than 94 µM; with 786-0 renal, more than 100 µM. In addition, the TGI in the experiment on TK-10 renal, in the experiment with OVCAR-8 ovarian, with HL-60(TB) leukemia, in the experiment with SR leukemia, with MDA-MB-435 and in the experiment with HCT-15 colon was more than 100 µM throughout. For the same molecule, the TGI with IGROV1 ovarian, in the experiment on SF-295 CNS, in the experiment on DU-145 prostate and in the experiment with 786-0 renal was more than 100 µM each time.

Consider `COc1cc(C#Cc2ccc(=O)oc2C#Cc2ccccc2)cc(OC)c1OC`, for which the GI50 was 4.57 µM with TK-10 renal; 2.93 µM in the experiment on OVCAR-8 ovarian; 4.62 µM in the experiment with HL-60(TB) leukemia; 1.84 µM with SR leukemia; 3.4 µM in the experiment with MDA-MB-435; 2.31 µM in the experiment on HCT-15 colon. For the same molecule, the GI50 was 2.18 µM with IGROV1 ovarian, 18.3 µM in the experiment with SF-295 CNS, 3.12 µM in the experiment on DU-145 prostate and 3.39 µM with 786-0 renal. The TGI was 13 µM in the experiment on TK-10 renal; 10.3 µM with OVCAR-8 ovarian; 40.1 µM with HL-60(TB) leukemia; more than 31.3 µM with SR leukemia; 17.8 µM in the experiment on MDA-MB-435; 5.1 µM with HCT-15 colon. The TGI in the experiment on IGROV1 ovarian stood at 5.7 µM; in the experiment on SF-295 CNS it was 38.9 µM; with DU-145 prostate it was 10.7 µM; in the experiment with 786-0 renal, 12.2 µM.

`O=C(CO[N+](=O)[O-])Nc1ccc(C(=O)/C=C/c2ccc(Cl)cc2)cc1`: the GI50 is 8.37 µM in the experiment with TK-10 renal; 3.24 µM in the experiment with OVCAR-8 ovarian; 3.59 µM with HL-60(TB) leukemia; 3.65 µM with SR leukemia; 2.96 µM with MDA-MB-435; 2.03 µM in the experiment with HCT-15 colon. Besides, the GI50 was 13.4 µM with IGROV1 ovarian, 5.82 µM in the experiment on SF-295 CNS, 3.41 µM in the experiment on DU-145 prostate and 11.6 µM with 786-0 renal. The TGI was 25.1 µM with TK-10 renal; 14 µM with OVCAR-8 ovarian; more than 100 µM with HL-60(TB) leukemia; more than 100 µM with SR leukemia; 11.2 µM in the experiment on MDA-MB-435; 6.53 µM in the experiment on HCT-15 colon. Besides, the TGI in the experiment with IGROV1 ovarian was determined as 30 µM; in the experiment on SF-295 CNS, 29.2 µM; in the experiment with DU-145 prostate, 13.5 µM; with 786-0 renal, 48 µM.

In the case of `Oc1[nH]c2ccccc2c1N=Nc1ccccn1`, the TGI in the experiment on TK-10 renal is 53.7 µM; in the experiment with OVCAR-8 ovarian, 26.3 µM; in the experiment on HL-60(TB) leukemia, 86.5 µM; with SR leukemia, 47.6 µM; in the experiment on MDA-MB-435, more than 100 µM; in the experiment with HCT-15 colon, more than 100 µM. Further, the TGI in the experiment with IGROV1 ovarian was 90.7 µM; in the experiment on SF-295 CNS, more than 100 µM; with DU-145 prostate it was more than 100 µM; with 786-0 renal, 29.6 µM.

`CC(C(=O)c1ccccc1)C(c1ccccc1)N1CCOCC1` (stereo not given): the TGI in the experiment on TK-10 renal, in the experiment with OVCAR-8 ovarian, in the experiment with HL-60(TB) leukemia, with SR leukemia, in the experiment on MDA-MB-435 and with HCT-15 colon was more than 100 µM in each case. Moreover, the TGI with IGROV1 ovarian, in the experiment on SF-295 CNS, with DU-145 prostate and with 786-0 renal was more than 100 µM each time.
